Reference: US9206191B2, “Indazoles for the treatment and prophylaxis of respiratory syncytial virus infection” (Hoffmann-La Roche Inc., priority 2012, dated 2015)

Test system: RSV Long strain
Assay: Viral Cytopathic Effect (CPE) Assay
Type: cell-based
Details: human respiratory syncytial virus, 144 h, cell viability after 6 days, Cell Counting kit-8

Compound	EC50 [nM]
CS(=O)(=O)c1nn(Cc2nc3cc(Cl)ccc3n2C2CCNC(=O)C2)c2cnccc12 (stereo not drawn) [Example 2-4, 4-(5-Chloro-2-{[3-(methylsulfonyl)-1H-pyrazolo[3,4-c]pyridin-1-yl]methyl}-1H-benzimidazol-1-yl)piperidin-2-one]	7.35
CS(=O)(=O)c1nn(Cc2nc3cc(Cl)ccc3n2C2CCN(C(=O)CN)C2)c2cnccc12 (stereo not drawn) [Example 2-18, 2-Amino-1-[3-(5-chloro-2-{[3-(methylsulfonyl)-1H-pyrazolo[3,4-c]pyridin-1-yl]methyl}-1H-benzimidazol-1-yl)pyrrolidin-1-yl]ethanone]	36
CS(=O)(=O)c1nn(Cc2nc3cc(Cl)ccc3n2CCOCCO)c2cnccc12 [Example 2-35, 2-[2-(5-chloro-2-{[3-(methylsulfonyl)-1H-pyrazolo[3,4-c]pyridin-1-yl]methyl}-1H-benzimidazol-1-yl)ethoxy]ethanol]	15
C[C@@H](c1nc2cc(Cl)ccc2n1CCC(F)(F)F)n1nc(S(C)(=O)=O)c2ccncc21 [Example 15-2, 1-{(1S)-1-[5-Chloro-1-(3,3,3-trifluoropropyl)-1H-benzimidazol-2-yl]ethyl}-3-(methylsulfonyl)-1H-pyrazolo[3,4-c]pyridine]	68
CS(=O)(=O)c1nn(Cc2nc3cc(Cl)ccc3n2-c2ccc(F)nc2)c2ccccc12 [Example 3-1, 1-{[5-Chloro-1-(6-fluoropyridin-3-yl)-1H-benzimidazol-2-yl]methyl}-3-(methylsulfonyl)-1H-indazole]	9.86
CS(=O)(=O)CCCn1c(Cn2cc(S(=O)(=O)C3CC3)c3ccccc32)nc2cc(Cl)ccc21 [Example 1-7, 5-Chloro-2-{[3-(cyclopropylsulfonyl)-1H-indol-1-yl]methyl}-1-[3-(methylsulfonyl)propyl]-1H-benzimidazole]	227
CS(=O)(=O)CCCn1c(Cn2nc(S(C)(=O)=O)c3ccncc32)nc2cc(Cl)ccc21 [Example 1-11, 1-({5-Chloro-1-[3-(methylsulfonyl)propyl]-1H-benzimidazol-2-yl}methyl)-3-(methylsulfonyl)-1H-pyrazolo[3,4-c]pyridine]	4.6
CS(=O)(=O)c1nn(Cc2nc3cc(Cl)ccc3n2C2CCOC2)c2ccccc12 (stereo not drawn) [Example 2-8, 1-{[5-Chloro-1-(tetrahydrofuran-3-yl)-1H-benzimidazol-2-yl]methyl}-3-(methylsulfonyl)-1H-indazole]	36.1
CS(=O)(=O)c1nn(Cc2nc3cc(Cl)ccc3n2C2COC2)c2cnccc12 [Example 2-5, 1-{[5-Chloro-1-(oxetan-3-yl)-1H-benzimidazol-2-yl]methyl}-3-(methylsulfonyl)-1H-pyrazolo[3,4-c]pyridine]	22.4
CS(=O)(=O)c1nn(Cc2nc3cc(Cl)ccc3n2C2CCS(=O)(=O)C2)c2cnccc12 (stereo in doubt) [Example 2-1, 1-({5-Chloro-1-[(3R)-1,1-dioxidotetrahydrothiophen-3-yl]-1H-benzimidazol-2-yl}methyl)-3-(methylsulfonyl)-1H-pyrazolo[3,4-c]pyridine]	8.99
CS(=O)(=O)c1nn(Cc2nc3cc(Cl)ccc3n2-c2ccc(Cl)nc2)c2ccccc12 [Example 3-5, 1-{[5-Chloro-1-(6-chloropyridin-3-yl)-1H-benzimidazol-2-yl]methyl}-3-(methylsulfonyl)-1H-indazole]	18.1
CC(C)(O)CCCn1c(Cn2nc(S(C)(=O)=O)c3ccncc32)nc2cc(Cl)ccc21 [Example 2-38, 5-(5-chloro-2-{[3-(methylsulfonyl)-1H-pyrazolo[3,4-c]pyridin-1-yl]methyl}-1H-benzimidazol-1-yl)-2-methylpentan-2-ol]	8
CS(=O)(=O)c1nn(Cc2nc3cc(Cl)cc(F)c3n2[C@@H]2CCS(=O)(=O)C2)c2cnccc12 [Example 12, 1-({5-chloro-1-[(3R)-1,1-dioxidotetrahydrothiophen-3-yl]-7-fluoro-1H-benzimidazol-2-yl}methyl)-3-(methylsulfonyl)-1H-pyrazolo[3,4-c]pyridine]	2
CS(=O)(=O)c1nn(Cc2nc3cc(Cl)ccc3n2C2CNC(=O)C2)c2cnccc12 (stereo not drawn) [Example 7, 4-(5-Chloro-2-{[3-(methylsulfonyl)-1H-pyrazolo[3,4-c]pyridin-1-yl]methyl}-1H-benzimidazol-1-yl)pyrrolidin-2-one]	8.43
COc1ccc(-n2c(Cn3nc(S(C)(=O)=O)c4ccccc43)nc3cc(Cl)ccc32)cn1 [Example 3-4, 1-{[5-Chloro-1-(6-methoxypyridin-3-yl)-1H-benzimidazol-2-yl]methyl}-3-(methylsulfonyl)-1H-indazole]	33.5
CS(=O)(=O)c1nn(Cc2nc3cc(Cl)ccc3n2[C@H]2C[C@@](C)(O)C2)c2cnccc12 [Example 2-33, cis-3-(5-Chloro-2-{[3-(methylsulfonyl)-1H-pyrazolo[3,4-c]pyridin-1-yl]methyl}-1H-benzimidazol-1-yl)-1-methylcyclobutanol]	9.85
CC(C)(O)CCn1c(Cn2nc(S(C)(=O)=O)c3ccncc32)nc2cc(Cl)ccc21 [Example 2-29, 4-(5-Chloro-2-{[3-(methylsulfonyl)-1H-pyrazolo[3,4-c]pyridin-1-yl]methyl}-1H-benzimidazol-1-yl)-2-methylbutan-2-ol]	8.04

Compound	EC50 [nM]
CS(=O)(=O)c1nn(Cc2nc3cc(Cl)ccc3n2-c2ccc(F)nc2)c2c[n+]([O-])ccc12 [Example 3-3, 1-{[5-Chloro-1-(6-fluoropyridin-3-yl)-1H-benzimidazol-2-yl]methyl}-3-(methylsulfonyl)-1H-pyrazolo[3,4-c]pyridine 6-oxide]	1540
CS(=O)(=O)CCCn1c(Cn2nc(S(C)(=O)=O)c3ccccc32)nc2cc(Cl)ccc21 [Example 1-8, 1-({5-Chloro-1-[3-(methylsulfonyl)propyl]-1H-benzimidazol-2-yl}methyl)-3-(methylsulfonyl)-1H-indazole]	16
CS(=O)(=O)c1nn(Cc2nc3cc(Cl)ccc3n2CCC2(O)CC2)c2cnccc12 [Example 2-34, 1-[2-(5-Chloro-2-{[3-(methylsulfonyl)-1H-pyrazolo[3,4-c]pyridin-1-yl]methyl}-1H-benzimidazol-1-yl)ethyl]cyclopropanol]	8.7
CS(=O)(=O)c1nn(Cc2nc3cc(Cl)ccc3n2C2CCC(F)(F)C2)c2ccccc12 (stereo not drawn) [Example 2-9, 1-{[5-Chloro-1-(3,3-difluorocyclopentyl)-1H-benzimidazol-2-yl]methyl}-3-(methylsulfonyl)-1H-indazole]	6.97
CS(=O)(=O)CCCn1c(Cn2nc(S(C)(=O)=O)c3ccncc32)cc2cc(Cl)ccc21 [Example 9-2, 1-({5-Chloro-1-[3-(methylsulfonyl)propyl]-1H-indol-2-yl}methyl)-3-(methylsulfonyl)-1H-pyrazolo[3,4-c]pyridine]	8.12
CS(=O)(=O)CCn1c(Cn2nc(S(C)(=O)=O)c3ccncc32)cc2cc(Cl)ccc21 [Example 9-1, 1-({5-Chloro-1-[2-(methylsulfonyl)ethyl]-1H-indol-2-yl}methyl)-3-(methylsulfonyl)-1H-pyrazolo[3,4-c]pyridine]	3.71
CS(=O)(=O)c1nn(Cc2nc3cc(Cl)ccc3n2C2CCC(O)C2)c2c[n+]([O-])ccc12 (stereo not drawn) [Example 2-12, 3-(5-Chloro-2-{[3-(methylsulfonyl)-6-oxido-1H-pyrazolo[3,4-c]pyridin-1-yl]methyl}-1H-benzimidazol-1-yl)cyclopentanol]	769
CC(O)(CCn1c(Cn2nc(S(C)(=O)=O)c3ccncc32)nc2cc(Cl)ccc21)C(F)(F)F (stereo not drawn) [Example 14, 4-(5-chloro-2-{[3-(methylsulfonyl)-1H-pyrazolo[3,4-c]pyridin-1-yl]methyl}-1H-benzimidazol-1-yl)-1,1,1-trifluoro-2-methylbutan-2-ol]	2.8
CCS(=O)(=O)c1cn(Cc2nc3cc(Cl)ccc3n2CCCS(C)(=O)=O)c2ccccc12 [Example 1-5, 5-Chloro-2-{[3-(ethylsulfonyl)-1H-indol-1-yl]methyl}-1-[3-(methylsulfonyl)propyl]-1H-benzimidazole]	65
CS(=O)(=O)c1nn(Cc2nc3cc(Cl)ccc3n2CCC(O)C(F)F)c2cnccc12 (stereo not drawn) [Example 2-44, 4-(5-chloro-2-{[3-(methylsulfonyl)-1H-pyrazolo[3,4-c]pyridin-1-yl]methyl}-1H-benzimidazol-1-yl)-1,1-difluorobutan-2-ol]	3.3
CC(=O)N1CCC(n2c(Cn3nc(S(C)(=O)=O)c4ccccc43)nc3cc(Cl)ccc32)C1 (stereo not drawn) [Example 6-2, 1-[3-(5-Chloro-2-{[3-(methylsulfonyl)-1H-indazol-1-yl]methyl}-1H-benzimidazol-1-yl)pyrrolidin-1-yl]ethanone]	8.75
CS(=O)(=O)c1nn(Cc2nc3cc(Cl)ccc3n2[C@@H]2CCN(S(C)(=O)=O)C2)c2cnccc12 [Example 6-6, 1-({5-Chloro-1-[(3R)-1-(methylsulfonyl)pyrrolidin-3-yl]-1H-benzimidazol-2-yl}methyl)-3-(methylsulfonyl)-1H-pyrazolo[3,4-c]pyridine]	3
CS(=O)(=O)c1nn(Cc2nc3cc(Cl)ccc3n2-c2ccc(F)nc2)c2cnccc12 [Example 3-2, 1-{[5-Chloro-1-(6-fluoropyridin-3-yl)-1H-benzimidazol-2-yl]methyl}-3-(methylsulfonyl)-1H-pyrazolo[3,4-c]pyridine]	18.7
[2H]C([2H])(O)CCn1c(Cn2nc(S(C)(=O)=O)c3ccncc32)nc2cc(Cl)ccc21 [Example 13, 3-(5-chloro-2-{[3-(methylsulfonyl)-1H-pyrazolo[3,4-c]pyridin-1-yl]methyl}-1H-benzimidazol-1-yl)(1,1-^2H2)propan-1-ol]	3
CS(=O)(=O)CCCn1c(Cn2cc(S(C)(=O)=O)c3cc(F)ccc32)nc2cc(Cl)ccc21 [Example 1-3, 5-Chloro-2-{[5-fluoro-3-(methylsulfonyl)-1H-indol-1-yl]methyl}-1-[3-(methylsulfonyl)propyl]-1H-benzimidazole]	197
CC(C)(O)C(=O)N1CC[C@@H](n2c(Cn3nc(S(C)(=O)=O)c4ccncc43)nc3cc(Cl)ccc32)C1 [Example 6-5, 1-[(3R)-3-(5-Chloro-2-{[3-(methylsulfonyl)-1H-pyrazolo[3,4-c]pyridin-1-yl]methyl}-1H-benzimidazol-1-yl)pyrrolidin-1-yl]-2-hydroxy-2-methylpropan-1-one]	13
